Common to all, as to assay type: biochemical
Experiment [1] addresses T1, hPNKP 3'-phosphatase activity (Homo sapiens, UniProt Q96T60).
T1 construct: made in house; host or cells: bacteria (said only for the batch compared with aprataxin)
Briefly: Conventional radio-gel assay for hPNKP 3'-phosphatase activity.

Experiment [2] concerns the target T2, mouse PNKP (Mus musculus, UniProt Q9JLV6).
T2 construct: made in house
Briefly: PiColorLock 3'-phosphatase assay, mouse PNKP. As to conditions: all concentrations tested (down to 5 μM). An excerpt: To determine the specificity of A12B4C3 for human PNKP phosphatase activity, a number of closely related phosphatases such as the PNKP enzymes isolated from bacteriophage T4, Schizosaccharomyces pombe and mouse, as well as aprataxin, were examined.

The target in experiment [3] is T3, aprataxin (APTX) (Homo sapiens, UniProt Q7Z2E3).
T3 construct: made in house; host or cells: E. coli BL21-Gold (DE3), QIAgene expression construct (Qiagen)
Briefly: 3'-DNA phosphatase activity of aprataxin. As to conditions: 50 μM. The procedure: Human recombinant aprataxin (APTX) protein with an N-terminal 6× His tag was expressed in BL21-Gold (DE3) E. coli competent cells (Stratagene, La Jolla, Calif.) using the QIAgene expression construct (Qiagen, Mississauga, ON). A single colony of kanamycin resistant E. coli was used to inoculate a 200-ml overnight culture (e.g., about 12 to about 16 hours in Luria-Bertani (LB) media containing 30 μg/ml kanamycin. Four 50-ml fractions of overnight culture were then subcultured into 4×1 L LB without kanamycin. Once the culture reached an optical density of ˜0.6 at 600 nm, protein expression was induced using 0.2 mM isopropyl-1-thio-β-galactopyranoside (Sigma, St Louis, Mo.) at 37° C. for 2 hours. Cells were harvested by centrifugation at 10,000 rpm for 10 minutes at 4° C. and resuspended in 40 ml buffer (50 mM NaH2PO4, 250 mM NaCl, 1 mM PMSF, at pH 7.9). The solution was then stirred on ice for 30 minutes in the presence of 30 mg lysozyme and 4 mg PMSF, 1 μg/ml each of pepstatin and leupeptin. […] His-APTX concentration was then determined using the Bio-Rad Protein assay (Bio-Rad, Mississauga, ON).
It was also tested whether A12B4C3 could inhibit aprataxin, which is another human DNA 3′-phosphatase. For this experiment, the oligonucleotide substrate was incubated with equal quantities of the two enzymes that were purified from bacteria on the same day. […]

In experiment [4] the target is calcineurin (Rattus norvegicus, UniProt P63329). Briefly: Calcineurin pNPP phosphatase assay. As to conditions: concentration as high as 83.3 μM. The protocol: PP-1cγ and calcineurin activity was analyzed, using a colorimetric p-nitrophenol phosphate (pNPP) assay as previously described (33). The reaction were carried out in a 96-well microplate with a final volume of 60 μl containing 40 μl of pNPP assay buffer (50 mM Tris, pH 7.4, 0.1 mM EDTA, 30 mM MgCl2, 0.5 mM MnCl2, 1 mg/ml BSA, 0.2% β-mercaptoethanol), 0.03 μg PP-1cγ (specific activity>30 units per mg) or a catalytically equivalent quantity of calcineurin and 10 μl of 0.5 mM DNA 3′-phosphatase inhibitor sample in DMSO or 10 μl of 50 μM A12B4C3 sample in DMSO, or control solvent. After a 10-minute incubation at 37° C., 10 μl of 30 mM pNPP was added to each well and incubated for an additional of 60 minutes and 45 minutes for PP-1cγ and calcineurin, respectively. The absorbance at 405 nm was measured using a SOFTmax 2.35 microplate reader (Molecular Devices, Sunnyvale, Calif.).

“Also recorded” adds a separate entry of the source.

T3 sequence (Q7Z2E3 whole entry): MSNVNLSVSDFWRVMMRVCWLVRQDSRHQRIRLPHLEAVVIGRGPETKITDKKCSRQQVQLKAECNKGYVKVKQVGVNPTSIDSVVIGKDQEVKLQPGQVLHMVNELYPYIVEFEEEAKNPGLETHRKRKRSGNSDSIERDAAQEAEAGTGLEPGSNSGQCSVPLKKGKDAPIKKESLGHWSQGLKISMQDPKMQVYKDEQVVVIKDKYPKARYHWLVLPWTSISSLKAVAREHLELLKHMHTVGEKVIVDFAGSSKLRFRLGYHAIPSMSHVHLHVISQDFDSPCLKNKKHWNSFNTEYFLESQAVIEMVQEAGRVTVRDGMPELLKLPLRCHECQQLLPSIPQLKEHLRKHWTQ
T2 sequence (Q9JLV6 whole entry): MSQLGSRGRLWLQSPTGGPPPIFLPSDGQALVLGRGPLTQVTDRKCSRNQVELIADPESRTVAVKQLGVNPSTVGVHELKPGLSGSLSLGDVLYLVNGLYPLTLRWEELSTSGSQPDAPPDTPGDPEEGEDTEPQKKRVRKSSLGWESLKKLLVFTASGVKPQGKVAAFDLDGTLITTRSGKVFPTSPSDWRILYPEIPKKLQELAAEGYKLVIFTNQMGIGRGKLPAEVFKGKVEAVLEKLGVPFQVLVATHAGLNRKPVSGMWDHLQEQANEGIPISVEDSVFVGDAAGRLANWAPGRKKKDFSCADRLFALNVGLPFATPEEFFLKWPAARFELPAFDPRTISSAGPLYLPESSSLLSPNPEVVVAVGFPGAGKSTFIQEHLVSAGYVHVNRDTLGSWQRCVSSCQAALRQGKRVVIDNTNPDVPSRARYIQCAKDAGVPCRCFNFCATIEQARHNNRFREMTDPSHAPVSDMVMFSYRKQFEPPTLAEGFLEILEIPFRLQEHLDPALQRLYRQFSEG

For `CCCCCCCCCCC(O)C1C=CC2C(=O)N(c3ccccc3)C(=O)C2N1Nc1ccc([N+](=O)[O-])cc1` (stereo not shown) [Compound A12B4C3, 2-(1-hydroxyundecyl)-1-(4-nitrophenylamino)-6-phenyl-6,7a-dihydro-1H-pyrrolo[3,4-b]pyridine-5,7(2H,4aH)-dione], the “inhibition of hPNKP phosphatase activity, radio-gel assay” value in experiment [1] is listed as “inhibited”. Moreover, the “inhibition of mouse PNKP” value in experiment [2] is given as “significantly inhibited”. In addition, the “inhibition of aprataxin phosphatase activity” value in experiment [3] is reported as “refractory”. Also, the inhibition of calcineurin result in experiment [4] was “Neither enzyme displayed inhibition; also recorded: no inhibition”.
